# Tested on: anti-EBV antibodies
# Test: ELISA with EBV control peptide, comparing antibody titers against HHV-8 and EBV
# Format: binding, human
# Method: Various control panels as well as control peptides were used to test the specificity of the HHV-8 antibody ELISA. Using an EBV control peptide (cf. table 2), analyses were carried out to compare antibody titers against HHV-8 and EBV (a closely related herpesvirus). In 56 out of 64 cases the observed antibody titers were at least 30% divergent; the EBV seroprevalence was 86% with HIV-positive patients and 72% with the controls.
substance,measurement,setting,value
"S G S G Q E P P A P Q A P I (SGSGQEPPAPQAPI; Epstein-Barr virus) [EBV control peptide, control peptide, Epstein-Barr virus strain B95-8, EBNA 6, position 100695-100724, with SGSG spacer]",EBV seroprevalence,HIV-positive patients,86%
same,EBV seroprevalence,controls,72%
